From ChEMBL document CHEMBL1201862, “PubChem BioAssay data set” (2004) come the findings set out here.

Test systems include OVCAR-4; DU-145; MDA-N; SK-MEL-28; IGROV-1; HOP-92; OVCAR-5; TK-10; ACHN; OVCAR-8; SK-MEL-2; HCT-15; LOX IMVI; KM12; HOP-62; A498; SK-MEL-5; RXF 393; T47D.
Test in all cases: inhibition of tumour cell growth, NCI panel, 48 h

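Compound exposure: 48 hours, 5 concentrations, 96-well plates. GI50: concentration for 50% inhibition of growth.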 Activity calls are given as the source filed them. Cut-off read from the data, not from the text of the source: active = GI50 up to about 1.1 µM and inactive = higher.

Take `COc1ccccc1NS(=O)(=O)c1ccc2ncn(NS(=O)(=O)c3ccc(Cl)cc3)c(=O)c2c1`: the GI50 in the assay with OVCAR-4 is > 100 µM (inactive); in the assay with DU-145, > 100 µM (inactive); with MDA-N, 67.9 µM (inactive); in the assay with SK-MEL-28 it was > 100 µM (inactive); with IGROV-1, > 100 µM (inactive); with HOP-92 it was > 100 µM (inactive). Also, the GI50 was 63 µM (inactive) in the assay on OVCAR-5; > 100 µM (inactive) in the assay with TK-10; > 100 µM (inactive) with ACHN; > 100 µM (inactive) with OVCAR-8; 45.2 µM (inactive) with SK-MEL-2; above 100 µM in the assay with HCT-15. Besides, the GI50 is > 100 µM (inactive) with LOX IMVI, 61.4 µM (inactive) in the assay on KM12 and > 100 µM (inactive) in the assay with HOP-62.

As to `O=C(Cn1c2c(c3ccccc31)CCCC2)NC1CCCCC1`, the GI50 with OVCAR-4 is 94.2 µM (inactive); in the assay with A498 it was > 100 µM (inactive); with MDA-N it was > 100 µM (inactive); in the assay on SK-MEL-28, 63 µM (inactive); in the assay with IGROV-1 it was 22.5 µM (inactive); with OVCAR-5, 46.8 µM (inactive). Also, the GI50 with TK-10 is > 100 µM (inactive); in the assay on ACHN, > 100 µM (inactive); in the assay on OVCAR-8 it was > 100 µM (inactive); in the assay with SK-MEL-2, > 100 µM (inactive); in the assay with HCT-15 it was above 100 µM; in the assay with LOX IMVI, 68.5 µM (inactive). In addition, the values for the GI50 in the assay with SK-MEL-5 and with HOP-62 were > 100 µM (inactive) and 81.8 µM (inactive), respectively.

For `O=c1[nH]c(=O)n(COCCO)c2ccsc12`, the GI50 with OVCAR-4, in the assay on A498, with DU-145, in the assay on MDA-N, with SK-MEL-28 and in the assay with IGROV-1 was > 100 µM (inactive) throughout. Moreover, the GI50 with HOP-92, in the assay with OVCAR-5, with TK-10, in the assay on ACHN, with OVCAR-8 and with SK-MEL-2 was > 100 µM (inactive) each time. For the same compound, the GI50 in the assay with HCT-15 was above 100 µM; in the assay on RXF 393, > 100 µM (inactive); in the assay on LOX IMVI, > 100 µM (inactive); in the assay with SK-MEL-5 it was > 100 µM (inactive); with KM12, > 100 µM (inactive); in the assay with HOP-62, > 100 µM (inactive).

In the case of `O=C(OC1C(Oc2ccccc2COC(=O)C2(O)C=CCCC2=O)OC(CO)C(O)C1O)c1ccccc1` (stereo not drawn), the GI50 in the assay with OVCAR-4 was 41.2 µM (inactive); in the assay with DU-145 it was 0.953 µM (active); with MDA-N, 27 µM (inactive); with SK-MEL-28 it was 68.4 µM (inactive); with IGROV-1, 25.6 µM (inactive); in the assay on HOP-92, 0.094 µM (active). The GI50 was 91.2 µM (inactive) in the assay on OVCAR-5; 31.3 µM (inactive) in the assay on TK-10; 34.2 µM (inactive) in the assay with ACHN; 36.7 µM (inactive) in the assay on OVCAR-8; 65.8 µM (inactive) in the assay with SK-MEL-2; 28.2 µM with HCT-15. In addition, the GI50 in the assay with LOX IMVI is 23.6 µM (inactive); in the assay on SK-MEL-5, 1.28 µM (inactive); with KM12, 27.4 µM (inactive); with HOP-62, 42 µM (inactive).

With `Cc1cccc2c(N)c3cccc(C(=O)NCCN(C)C)c3nc12`, the GI50 in the assay with OVCAR-4 is 0.09 µM (active); with A498 it was 0.157 µM (active); in the assay with DU-145 it was 0.0188 µM (active); in the assay on SK-MEL-28, 0.193 µM (active); in the assay with T47D, 0.0378 µM (active); in the assay on IGROV-1 it was < 0.0291 µM (active). Moreover, the GI50 was 0.0935 µM (active) in the assay with OVCAR-5; 0.214 µM (active) in the assay on TK-10; < 0.0163 µM (active) in the assay on ACHN; 0.0695 µM (active) in the assay on OVCAR-8; 0.231 µM (active) in the assay on SK-MEL-2; below 0.0154 µM in the assay with HCT-15. In addition, the GI50 in the assay on RXF 393 was 0.184 µM (active); in the assay with LOX IMVI it was < 0.033 µM (active); in the assay with SK-MEL-5, 0.114 µM (active); with HOP-62, < 0.0247 µM (active).

For the compound `Cc1cc(-c2[nH]c(C(=O)O)cc2I)on1`, the GI50 in the assay with OVCAR-4 was > 100 µM (inactive); with A498 it was > 100 µM (inactive); in the assay on DU-145 it was > 100 µM (inactive); with MDA-N it was > 100 µM (inactive); with SK-MEL-28, > 100 µM (inactive); with IGROV-1, 12.5 µM (inactive). For the same compound, the GI50 is 9.33 µM (inactive) with HOP-92; 29.2 µM (inactive) in the assay with OVCAR-5; > 100 µM (inactive) in the assay on TK-10; 91.4 µM (inactive) with ACHN; 20.2 µM (inactive) with OVCAR-8; > 100 µM (inactive) in the assay with SK-MEL-2. Also, the GI50 in the assay on HCT-15 is above 100 µM; with RXF 393, 24 µM (inactive); in the assay on SK-MEL-5 it was > 100 µM (inactive); with KM12, > 100 µM (inactive); with HOP-62, 26.9 µM (inactive).

Consider `C[N+](C)(C)CC(=O)N/N=C/c1oc(-c2cccc([N+](=O)[O-])c2)c(-c2cccc([N+](=O)[O-])c2)c1[N+](=O)[O-]`, for which the GI50 with OVCAR-4 is > 100 µM (inactive); in the assay with A498, > 100 µM (inactive); with SK-MEL-28 it was 44.3 µM (inactive); with IGROV-1, 95.5 µM (inactive); in the assay on HOP-92, > 100 µM (inactive); in the assay with OVCAR-5, > 100 µM (inactive). Also, the GI50 in the assay on TK-10 was > 100 µM (inactive); in the assay with ACHN, > 100 µM (inactive); with OVCAR-8, 70.8 µM (inactive); in the assay on SK-MEL-2, > 100 µM (inactive); in the assay on RXF 393, 76.9 µM (inactive); in the assay with SK-MEL-5 it was 72.3 µM (inactive). For the same compound, the GI50 in the assay with HOP-62 was > 100 µM (inactive).

As for `C/C(=N\Nc1nc2ccccc2o1)c1cc(C)ncn1`, the GI50 with OVCAR-4 is 0.136 µM (active); with A498, > 100 µM (inactive); with DU-145, 0.171 µM (active); with MDA-N, 2.42 µM (inactive); in the assay with SK-MEL-28, 4 µM (inactive); in the assay on IGROV-1 it was 0.0275 µM (active). Besides, the GI50 in the assay on OVCAR-5 is 0.618 µM (active); in the assay with ACHN, < 0.0189 µM (active); in the assay on OVCAR-8 it was 0.0173 µM (active); with SK-MEL-2, 1.38 µM (inactive); in the assay with HCT-15, 0.043 µM; with RXF 393 it was 1.34 µM (inactive). Besides, the GI50 with SK-MEL-5 was 0.0381 µM (active); in the assay on KM12, 0.0851 µM (active); with HOP-62, 0.11 µM (active).

Regarding `COc1ccc(C#Cn2nnc3ccccc32)cc1`, the GI50 is > 100 µM (inactive) in the assay with OVCAR-4; > 100 µM (inactive) in the assay with A498; 41 µM (inactive) with DU-145; > 100 µM (inactive) in the assay on MDA-N; > 100 µM (inactive) in the assay on SK-MEL-28; > 100 µM (inactive) in the assay with IGROV-1. The GI50 in the assay with HOP-92 is > 100 µM (inactive); in the assay with OVCAR-5 it was > 100 µM (inactive); with TK-10 it was > 100 µM (inactive); with ACHN it was > 100 µM (inactive); in the assay on OVCAR-8 it was > 100 µM (inactive); in the assay on SK-MEL-2 it was 92 µM (inactive). Besides, the GI50 with HCT-15 is above 100 µM; in the assay on RXF 393, 97.7 µM (inactive); with LOX IMVI, > 100 µM (inactive); with SK-MEL-5, > 100 µM (inactive); in the assay with KM12, 96.4 µM (inactive); with HOP-62, > 100 µM (inactive).

As to `NNc1ncc2c(n1)-c1ccccc1OC2`, the GI50 in the assay on OVCAR-4 was 67.1 µM (inactive); in the assay on DU-145, 61 µM (inactive); with MDA-N, > 100 µM (inactive); in the assay on SK-MEL-28 it was > 100 µM (inactive); with IGROV-1 it was 31 µM (inactive); with HOP-92 it was 24.7 µM (inactive). Also, the GI50 in the assay on OVCAR-5 is > 100 µM (inactive); in the assay on TK-10, > 100 µM (inactive); in the assay with ACHN, 42.2 µM (inactive); in the assay with OVCAR-8 it was 44.4 µM (inactive); in the assay with SK-MEL-2, > 100 µM (inactive); in the assay on HCT-15, 29.9 µM. The GI50 in the assay on RXF 393 is > 100 µM (inactive); with LOX IMVI, 58.9 µM (inactive); in the assay with SK-MEL-5, 76.9 µM (inactive); with KM12 it was 54.1 µM (inactive); with HOP-62 it was 35.6 µM (inactive).

On to `COc1ccc(/C=C2\CCC(CNc3ccc(Br)cc3)C2=O)cc1` (stereo not drawn), for which the GI50 was > 100 µM (inactive) in the assay on OVCAR-4; > 100 µM (inactive) with A498; > 100 µM (inactive) in the assay with DU-145; > 100 µM (inactive) in the assay on SK-MEL-28; 84.7 µM (inactive) in the assay on T47D; > 100 µM (inactive) in the assay on IGROV-1. Moreover, the GI50 in the assay with HOP-92 is > 100 µM (inactive); with OVCAR-5, > 100 µM (inactive); in the assay with TK-10 it was 57.5 µM (inactive); with ACHN, 15.3 µM (inactive); in the assay on OVCAR-8, > 100 µM (inactive); with HCT-15, 8.45 µM. Besides, the GI50 is > 100 µM (inactive) with RXF 393; 25.9 µM (inactive) in the assay on LOX IMVI; 80.9 µM (inactive) in the assay with SK-MEL-5; 29.1 µM (inactive) in the assay with KM12; > 100 µM (inactive) in the assay with HOP-62.

Turning to `COC(=O)c1ccc(NCC2=CC(=O)C=CC2=O)cc1`, the GI50 in the assay on OVCAR-4 is 12.4 µM (inactive); in the assay on A498 it was 14.5 µM (inactive); in the assay on DU-145, 15.5 µM (inactive); in the assay with MDA-N, 11.4 µM (inactive); in the assay on SK-MEL-28 it was 15.1 µM (inactive); with IGROV-1 it was 16.7 µM (inactive). In addition, the GI50 was 3.43 µM (inactive) in the assay on HOP-92; 16.7 µM (inactive) with OVCAR-5; 10.8 µM (inactive) in the assay with TK-10; 14 µM (inactive) in the assay on ACHN; 13.9 µM (inactive) in the assay with OVCAR-8; 15.3 µM (inactive) in the assay on SK-MEL-2. Further, the GI50 in the assay with HCT-15 is 12.5 µM; in the assay with LOX IMVI it was 5 µM (inactive); with SK-MEL-5 it was 18.5 µM (inactive); in the assay with KM12 it was 13.6 µM (inactive).

Regarding `COC(=O)Cc1cc(OC)c(OC)cc1Br`, the GI50 in the assay with OVCAR-4, with A498, with SK-MEL-28, with HOP-92, with OVCAR-5 and in the assay with TK-10 was > 100 µM (inactive) in each case. Besides, the GI50 in the assay with ACHN, with OVCAR-8, with SK-MEL-2, in the assay on KM12 and in the assay with HOP-62 was > 100 µM (inactive) in each case.
